Results from paper PMC10473914, “Phosphorylation of Ack1 by the Receptor Tyrosine Kinase Mer” (Kinases and phosphatases, 2023).
“Also recorded” adds a separate entry of the source. Where a SMILES comes first, the peptide text is derived from it. [ ]: non-standard residue; d: D form. The star is where a group is joined. FITC = O=C1OC2(c3ccc(O)cc3Oc3cc(O)ccc32)c2ccc(NC(=S)*)cc21; pY = N[C@@H](Cc1ccc(OP(=O)(O)O)cc1)C(=O)O

Legend:
[1] = test system: Ack1; conditions: mice treated with a TLR7 ligand; cited from earlier work
Excerpt: It is increasingly clear that Mer plays a crucial role in the macrophage-mediated phagocytosis of apoptotic cells. […] Gas6 has a Gla domain at its N-terminus and binds to Mer and other TAMs to promote tyrosine kinase activity. […] Gene expression studies in colon cancer patients have shown a correlation between Ack1 expression and the extent of immune cell infiltration. Ack1 is required for apoptosis induced by TRAIL, an apoptosis-promoting factor [25], and dysregulation of Ack1 is linked to abnormal apoptotic activity. Ack1 promotes the activation of the Toll-like receptor (TLR) family members TLR4, TLR7, and TLR9 in macrophages and dendritic cells. A small molecule inhibitor of Ack1 (AIM-100) re ...

[2] = test system: macrophages; conditions: cited from earlier work
Excerpt: Gene expression studies in colon cancer patients have shown a correlation between Ack1 expression and the extent of immune cell infiltration. Ack1 is required for apoptosis induced by TRAIL, an apoptosis-promoting factor [25], and dysregulation of Ack1 is linked to abnormal apoptotic activity. Ack1 promotes the activation of the Toll-like receptor (TLR) family members TLR4, TLR7, and TLR9 in macrophages and dendritic cells. A small molecule inhibitor of Ack1 (AIM-100) re ...

[3] = target: T1, Mer kinase domain (Homo sapiens, UniProt Q12866); assay: Fluorescence polarization binding of fluorescein-labeled phosphopeptides to Mer kinase domain
T1 construct: His tag; host or cells: E. coli YGT cells co-expressing YopH tyrosine phosphatase and GroEL
T1 sequence (Q12866 587-858 limits assumed): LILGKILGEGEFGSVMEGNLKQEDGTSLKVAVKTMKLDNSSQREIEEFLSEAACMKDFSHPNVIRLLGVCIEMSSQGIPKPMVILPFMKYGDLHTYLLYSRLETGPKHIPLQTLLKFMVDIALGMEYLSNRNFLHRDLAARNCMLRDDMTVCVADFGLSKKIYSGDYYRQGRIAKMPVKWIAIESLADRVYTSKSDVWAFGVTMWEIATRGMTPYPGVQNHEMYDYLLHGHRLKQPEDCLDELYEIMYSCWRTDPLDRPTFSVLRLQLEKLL
Method: (§1) Figure 4. Ack1 MHR-derived peptides. (A) Position of the MHR domain in Ack1. The expanded sequences show an alignment between Mig6 and the MHR of Ack1, with Y859–Y860 in yellow. Asterisks indicate conserved residues. (B) Phosphorylation of MHR-derived peptides (100 μM) by Mer was measured using the phosphocellulose paper binding assay (SEM error bars). (C) Binding of fluorescein-labeled pY860 peptide to Mer kinase domain was measured by fluorescence polarization.
To confirm the interaction between pY860 and Mer, we attached fluorescein to the N-terminus of peptide pY860 and measured fluorescence polarization in the presence of increasing concentrations of Mer catalytic domain (Figure 4C).
Phosphotyrosine-containing peptides were fluorescently labeled by reaction with fluorescein isothiocyanate (5 molar equivalents) in 100 mM potassium phosphate buffer (pH 7.0) for 1 h at room temperature. The fluorescent peptides were purified by gel filtration chromatography on G15 Sephadex. Fluorescence polarization was measured in a Wallac1420 Victor2 instrument using 96-well half area black plates (Thermo Fisher, Waltham, MA, USA). The excitation filter was 485 nm, and the emission filter was 535 nm. Measurements were performed in volumes of 50 μL using a buffer of 50 mM Tris (pH 7.4), with peptide concentrations of 0.25 μM or 0.5 μM. The data were analyzed with Origin software (Origin v.7).

[4] = target: fluorescein-labeled Ack1 MHR peptide pY860; assay: fluorescence polarisation; fluorescein-labelled phosphopeptide at 0.25 or 0.5 uM, increasing concentrations of Mer catalytic domain; 50 mM Tris pH 7.4, 50 uL; apparent Kd
[5] = test system: Mer kinase; assay: Phosphocellulose paper binding assay: phosphorylation of MHR-derived peptides by Mer; format: biochemical, human; conditions: peptide 100 μM; [γ-32P]ATP; purified Mer kinase domain; 30 °C
Method: as §1
For IP-kinase assays, cell lysates (1 mg protein) were incubated with 30 μL of EZview red anti-FLAG M2 affinity resin at 4 °C for 4 h-overnight, then washed three times with Tris-buffered saline. A portion of each sample was eluted with SDS-PAGE sample buffer and analyzed by anti-Flag Western blotting. […]
Synthetic peptides and phosphopeptides were purchased from Genemed Synthesis Inc., San Antonio, TX, USA and were purified by semipreparative HPLC on a Vydac C18 column. Peptide phosphorylation was measured using the phosphocellulose paper binding assay with [γ-^32P] […] In this assay, the production of ADP was coupled to the oxidation of NADH, which was measured as a reduction in absorbance at 340 nm. […] Absorbance data were recorded every 8 s. Kinetic constants were determined by nonlinear fitting to the initial velocity vs. (substrate) curves using GraphPad Prism, San Diego, CA, USA (v.9).

## c1ccc(-c2oc3ncnc(NC[C@@H]4CCCO4)c3c2-c2ccccc2)cc1 [AIM-100]
[1]
  Effect on lupus symptoms / lupus-like phenotype: mitigated the lupus symptoms; also recorded: diminishing the lupus-like phenotype
[2]
  Effect on TLR-mediated activation of macrophages: reduced

## CC(C)C[C@H](NC(=O)[C@H](Cc1ccc(OP(=O)(O)O)cc1)NC(=O)[C@H](Cc1ccc(O)cc1)NC(=O)[C@H](Cc1c[nH]cn1)NC(=O)[C@@H](NC(=O)[C@H](CO)NC(=O)[C@H](CO)NC(=O)[C@@H](NC(=O)[C@H](CCCCN)NC(=O)[C@H](CCCCN)NC(=O)CNC(=O)[C@H](CC(=O)O)NC(=O)[C@H](CCCNC(=N)N)NC(=S)Nc1ccc2c(c1)C(=O)OC21c2ccc(O)cc2Oc2cc(O)ccc21)C(C)C)[C@@H](C)O)C(=O)N[C@@H](CC(C)C)C(=O)N1CCC[C@H]1C(=O)N[C@@H](CCC(=O)O)C(=O)O [pY860] ({FITC}-RDGKKVSSTHY[pY]LLPE-OH)
[3]
  Kd: 5.4 µM

## His-tagged Mer kinase domain (from UniProt Q12866 587-858) (domain or fragment)
[4]
  Kd: 5.4 µM

## RDGKKVSSTHpYYLLPE [pY859, Ack1 MHR-derived phosphopeptide containing phosphorylated Y859]
[3]; fluorescein-labeled peptide, 50 mM Tris pH 7.4, peptide 0.25 or 0.5 μM
  Binding of peptide to Mer (fluorescence polarization): below the detection limit; also recorded: poor binding

## RLSSSPGKTMPTTQSFASDPKYA [MHR1, Ack1 MHR-derived synthetic peptide containing Y827]
[5]
  Phosphorylation of peptide by Mer (substrate quality): not a good substrate
